The values below are quoted from earlier work in US20150065582A1, “Orally Dissolving Formulations of Memantine” (Forest Laboratories Holdings Limited, priority 2006, published 2015).

Structures can show the parent of a compound that is named as a salt.

For data set [1] the following is noted: oral administration of immediate release tablets.

In the case of `CC12CC3CC(C)(C1)CC(N)(C3)C2` [Memantine HCl], the “solubility (classification)” value is “highly soluble”.
For the molecule `CC12CC3CC(C)(C1)CC(N)(C3)C2` [memantine, 1-amino-3,5-dimethyl adamantane], the absolute bioavailability result in data set [1] was “approximately 100%”.
